Assay results from patent US20230146455A1, “TREATMENT OF INFLAMMATORY DISEASES WITH PEPTIDES AND PHARMACEUTICAL COMPOSITIONS” (Yuyu Pharma, Inc., priority 2020, published 2023).
Where “and” joins values, the source holds several entries; their conditions need not be identical. Equal values may be shown once. Where a SMILES comes first, the peptide text is derived from it. [ ]: non-standard residue; d: D form. Hyp = O=C(O)[C@@H]1C[C@@H](O)CN1

How the values were obtained:
TNF-alpha = assay: Example 8 main study Luminex, LPS hPBMCs: TNF-alpha; type: cell-based, human; conditions: for TNF-alpha Concentration: individual replicates; for TNF-alpha Concentration (pg/ml), Mean: mean of replicates
Procedure: (§1) Human PBMCs were pretreated with YY-101, YDE-011, YDE-043 or reference compound; Xiidra® at various concentration (ranging from […] to 500 nM) for 2 h before stimulation. An equal volume of 0.5% DMSO was used as a vehicle control. Then, the cells were treated with LPS at 5 ug/ml, which was selected based on the pilot study. The supernatants from treated cells were harvested at 24 h and placed in a 96 well for Luminex cytokine & chemokine profiling using a Luminex 200 multiplex assay (Luminex; R&D system, USA).
(§2) The main study arm with triplicate wells per group in a 24-well plate: • 1. Blank • 2. PBMC: 0.5% DMSO • 3. PBMC+LPS (5 ug/ml) • 4. PBMC+YY-101 500 nM • 5. PBMC+YY-101 50 nM • 6. PBMC+YY-101 5 nM • 7. PBMC+YY-101 0.5 nM • 8. PBMC+LPS (5 ug/ml)+Xiidra® 500 nM • 9. PBMC+LPS (5 ug/ml)+Xiidra® 50 nM • 10. PBMC+LPS (5 ug/ml)+Xiidra® 5 nM • 11. PBMC+LPS (5 ug/ml)+Xiidra® 0.5 nM • 12. PBMC+LPS (5 ug/ml)+Xiidra® 0.05 nM • 13. PBMC+LPS (5 ug/ml)+Xiidra® 0.005 nM • 14. PBMC+LPS (5 ug/ml)+YY-101 500 nM • 15. PBMC+LPS (5 ug/ml)+YY-101 50 nM • 16. PBMC+LPS (5 ug/ml)+YY-101 5 nM • 17. PBMC+LPS (5 ug/ml)+YY-101 0.5 nM • 18. PBMC+LPS (5 ug/ml)+YY-101 0.05 nM • 19. PBMC+LPS (5 ug/ml)+YY-101 0.005 nM • 20. PBMC+LPS (5 ug/ml)+YDE-011 500 nM • 21. PBMC+LPS (5 ug/ml)+YDE-011 50 nM • 22. PBMC+LPS (5 ug/ml)+YDE-011 5 nM • 23. PBMC+LPS (5 ug/ml)+YDE-011 0.5 nM • 24. PBMC+LPS (5 ug/ml)+YDE-011 0.05 nM • 25. PBMC+LPS (5 ug/ml)+YDE-011 0.005 nM • 26. PBMC+LPS (5 ug/ml)+YDE-043 500 nM • 27. PBMC+LPS (5 ug/ml)+YDE-043 50 nM • 28. PBMC+LPS (5 ug/ml)+YDE-043 5 nM • 29. PBMC+LPS (5 ug/ml)+YDE-043 0.5 nM • 30. PBMC+LPS (5 ug/ml)+YDE-043 0.05 nM • 31. PBMC+LPS (5 ug/ml)+YDE-043 0.005 nM
(§3) Multiplex assay was used to measure 30 cytokines and chemokines. The 1:200 diluted cell supernatant and serial dilution of the standard were dispensed into a 96 well plate at 50 ul/well. Then, the pre-mixed cocktail of antibody-coated magnetic beads was dispensed at 50 ul/well and incubated at room temperature for 2 h in a horizontal orbital microplate shaker at 800±500 rpm. The beads were washed using a magnetic device to prevent loss. The biotin-antibody was dispensed in 50 ul of each well and incubated at room temperature for 1 h in a shaker at 800±500 rpm. After washing, streptavidin-PE was added at 50 ul/well and incubated at room temperature for 30 min in a shaker under the same conditions. Finally, after washing, wash buffer (100 ul/well) was added to the plate and incubated in a shaker for 2 min. The Luminex™ 200 setting were set according to the manufacturer's protocol. The data was calculated with a standard five-parameter logistic nonlinear regression analysis of the data (xPonent software 4.2, USA). Results were presented as concentration (ng/ml or pg/ml).

IL-2 = assay: Example 8 main study Luminex, LPS hPBMCs: IL-2; type: cell-based, human; conditions: for IL-2 Concentration, individual wells / IL-2 MFI, individual wells / IL-2 MFI, Mean / IL-2 Concentration, Mean: 24 h; for IL-2 MFI, Mean: LPS alone Mean 80.5; for IL-2 Concentration, Mean: LPS alone Mean 3988.7
Procedure: as §1, §2, §3

[1] = PBMC + LPS(5 ug/ml) + test article 0.005 nM
[2] = PBMC + LPS(5 ug/ml) + test article 0.05 nM
[3] = PBMC + LPS(5 ug/ml) + test article 0.5 nM
[4] = PBMC + LPS(5 ug/ml) + test article 5 nM
[5] = PBMC + LPS(5 ug/ml) + test article 50 nM
[6] = PBMC + LPS(5 ug/ml) + test article 500 nM
[7] = at as low as 5 μM, LPS 5 ug/mL 24 hrs
[8] = PBMC + LPS(5 ug/ml) + compound 0.005 nM
[9] = PBMC + LPS(5 ug/ml) + compound 0.05 nM
[10] = PBMC + LPS(5 ug/ml) + compound 0.5 nM
[11] = PBMC + LPS(5 ug/ml) + compound 5 nM
[12] = PBMC + LPS(5 ug/ml) + compound 50 nM
[13] = PBMC + LPS(5 ug/ml) + compound 500 nM

For `CC(C)C[C@H](NC(=O)CNC(=O)[C@H](CC(C)C)NC(=O)[C@H](CCC(N)=O)NC(=O)CNC(=O)[C@@H]1C[C@@H](O)CN1)C(=O)N[C@@H](C)C(=O)NCC(=O)N1CCC[C@H]1C(=O)N[C@@H](CCCCN)C(=O)O` [YDE-011] (H-[Hyp]GQLGLAGPK-OH), the “TNF-alpha Concentration” value (TNF-alpha; [1]) was 2116.1 pg/mL and 1988.8 pg/mL and 1861.0 pg/mL, the “TNF-alpha Concentration (pg/ml), Mean” value (TNF-alpha; [1]) was 1988.6 pg/mL and the “TNF-alpha Concentration” value (TNF-alpha; [2]) was 1861.0 pg/ml and 2052.5 pg/ml (2×). The “TNF-alpha Concentration (pg/ml), Mean” value (TNF-alpha; [2]) was 1988.7 pg/mL, the “TNF-alpha Concentration” value (TNF-alpha; [3]) was 1344.6 pg/mL and 1988.8 pg/mL and 1797.0 pg/mL and the “TNF-alpha Concentration (pg/ml), Mean” value (TNF-alpha; [3]) was 1710.1 pg/mL. For the same molecule, the “TNF-alpha Concentration” value (TNF-alpha; [4]) was 749.3 pg/mL and 1409.7 pg/mL and 1668.5 pg/mL, the “TNF-alpha Concentration (pg/ml), Mean” value (TNF-alpha; [4]) was 1275.8 pg/mL and the “TNF-alpha Concentration” value (TNF-alpha; [5]) was 1732.8 pg/mL and 2179.5 pg/mL and 442.1 pg/mL. The “TNF-alpha Concentration (pg/ml), Mean” value (TNF-alpha; [5]) was 1451.5 pg/mL, the “TNF-alpha Concentration” value (TNF-alpha; [6]) was 2116.1 pg/mL and 647.8 pg/mL and 1246.7 pg/mL and the “TNF-alpha Concentration (pg/ml), Mean” value (TNF-alpha; [6]) was 1336.9 pg/mL. For the same molecule, the “LPS-induced TNF-α (in words)” value (TNF-alpha; [7]) was “significantly reduced”, the “IL-2 Concentration, individual wells” value (IL-2; [8]) was 2239.1 pg/mL and 2082.5 pg/mL and 2707.7 pg/mL and the “IL-2 MFI, individual wells” value (IL-2; [8]) was 58.0 and 56.0 and 64.0. The “IL-2 MFI, Mean” value (IL-2; [8]) was 59.3, the “IL-2 Concentration, Mean” value (IL-2; [8]) was 2343.1 pg/mL and the “IL-2 Concentration, individual wells” value (IL-2; [9]) was 2707.7 pg/mL and 2473.6 pg/mL and 2824.6 pg/mL. The “IL-2 MFI, individual wells” value (IL-2; [9]) was 64.0 and 61.0 and 65.5, the “IL-2 MFI, Mean” value (IL-2; [9]) was 63.5 and the “IL-2 Concentration, Mean” value (IL-2; [9]) was 2668.6 pg/mL. The “IL-2 Concentration, individual wells” value (IL-2; [10]) was 2239.1 pg/mL and 1925.7 pg/mL and 2200.0 pg/mL, the “IL-2 MFI, individual wells” value (IL-2; [10]) was 58.0 and 54.0 and 57.5 and the “IL-2 MFI, Mean” value (IL-2; [10]) was 56.5. The “IL-2 Concentration, Mean” value (IL-2; [10]) was 2121.6 pg/mL, the “IL-2 Concentration, individual wells” value (IL-2; [11]) was 1532.6 pg/mL and 1611.3 pg/mL and 2551.7 pg/mL and the “IL-2 MFI, individual wells” value (IL-2; [11]) was 49.0 and 50.0 and 62.0. The “IL-2 MFI, Mean” value (IL-2; [11]) was 53.7, the “IL-2 Concentration, Mean” value (IL-2; [11]) was 1898.5 pg/mL and the “IL-2 Concentration, individual wells” value (IL-2; [12]) was 2160.8 pg/mL and 659.4 pg/mL and 2082.5 pg/mL. The “IL-2 MFI, individual wells” value (IL-2; [12]) was 57.0 and 38.0 and 56.0, the “IL-2 MFI, Mean” value (IL-2; [12]) was 50.3 and the “IL-2 Concentration, Mean” value (IL-2; [12]) was 1634.3 pg/mL. The “IL-2 Concentration, individual wells” value (IL-2; [13]) was 2941.4 pg/mL and 579.2 pg/mL and 1729.4 pg/mL, the “IL-2 MFI, individual wells” value (IL-2; [13]) was 67.0 and 37.0 and 51.5 and the “IL-2 MFI, Mean” value (IL-2; [13]) was 51.8. The “IL-2 Concentration, Mean” value (IL-2; [13]) was 1750.0 pg/mL and the “LPS-induced IL-2 (in words)” value (IL-2; [7]) was “significantly reduced”.
